Assay results published in patent US20230404989A1, “GRK2 INHIBITION BY PAROXETINE AMELIORATES OSTEOARTHRITIS” (THE PENN STATE RESEARCH FOUNDATION, priority 2020, published 2023).
Entries after “also recorded” stand apart in the source; their conditions may differ.

Assays:
DMM mice [1] = experiment: DMM drug treatment study: OARSI scoring and histomorphometry of knee cartilage; type: in vivo, mouse; details: for cartilage degeneration (Safranin-O and Fast Green histology) / chondro-protective and matrix-regenerative effects (overall) / total number of chondrocytes / uncalcified cartilage area: daily ip week 8 to 12; for OARSI score / number of matrix producing chondrocytes: daily ip week 8 to 12, versus vehicle
Protocol: Drug treatment studies: In twelve-week old male wild type C57BL/6 mice that received DMM surgeries, vehicle (PBS), paroxetine (5 mg/kg/day), fluoxetine (5 mg/kg/day), gallein (10 mg/kg/day) or indomethacin (2.5 mg/kg/day) were administered daily by ip injection. Drug treatment was initiated 8 weeks following DMM to determine the role of GRK2 signaling in the progression of OA.
Twelve-week-old male mice were administered DMM surgery to the right knee and sham surgery to the left knee as described (S. S. Glasson, Osteoarthritis. Cartilage. 15, 1061-1069 (2007)). Briefly, mice were anesthetized via intraperitoneal injection of ketamine (60 mg/kg) and xylazine (4 mg/kg), and a 5-mm-long incision was made on the medial side of the knee. Under a dissecting microscope, an incision was made along the medial side of the patellar tendon, opening the joint space. Using a #11 scalpel, the medial meniscotibial ligament (MMTL) was transected, enabling the medial meniscus to move freely. A similar skin incision was made in sham knees, but the joint structure was not disturbed. For the sham group, both right and left knees had sham surgeries. After surgery, 4-0 silk sutures were used to close the incision using an interrupted pattern. Mice were provided analgesia via intraperitoneal injection of buprenorphine (0.5 mg/kg) every 12 hours for 72 hours, and sutures were removed after 7 days. Mice were sacrificed, at the indicated time points, by anesthesia followed with whole animal perfusion using 10% NBF, knees were harvested and fixed for 7 days in 10% NBF, decalcified for 7 days in 10% w/v EDTA, embedded in paraffin, and 10-μm sections were cut and mounted for Safranin-O/Fast Green or IF staining.
Semi-quantitative histopathologic grading was performed using a derivative of the Chambers' scoring system that has been established by the OARSI histopathology initiative as the standard method for grading of mouse cartilage degeneration. Based on this system, cartilage grading was carried out using Safranin-O/Fast Green-stained midsagittal sections. Three sections from representative levels (50 μm apart) of the medial compartment of the joint were selected for each sample and, which were evaluated in a randomized, blinded manner by 3 laboratory members. The 3 scores were averaged to calculate the section score, and the sample score was then calculated by averaging the scores obtained from the three levels. Grading was performed using the following scale: 0=normal cartilage, 0.5=loss of proteoglycan stain without cartilage damage, 1=mild superficial fibrillation, 2=fibrillation and/or clefting extending below the superficial zone, 3=mild (<25%) loss of cartilage, 4=moderate (25-50%) loss of cartilage, 5=severe (50-75%) loss of uncalcified cartilage, and 6=eburnation with >75% loss of cartilage. Grading was performed by three blinded observers (F.K., M.J.Z., and E.R.S.). Observer agreement was evaluated in pairs via calculation of a weighted kappa coefficient, using Fleiss-Cohen weights, as we have described. The F.K. versus M.J.Z. coefficient was 0.92, the F.K. versus E.R.S. coefficient was 0.94, and the M.J.Z. versus E.R.S coefficient was 0.89, all indicative of strong agreement between the observers.
Using Safranin-O/Fast Green-stained sections, the OsteoMetrics system was used to quantify the above parameters on three sections from representative levels (50 μm apart) of the medial compartment of the joint for each sample. Live images of the center of the knee joint were collected through an Olympus microscope (10× objective) outfitted with a camera, a stylus was used to trace the regions of interest (ROIs). A blinded observer quantified uncalcified articular cartilage area, total chondrocyte number and matrix-producing chondrocyte number using the built-in area calculation algorithms and quantification functions of the OsteoMeasure® system. […]

DMM mice [2] = experiment: Micro-CT assessment of knee joint and subchondral bone in DMM mice; type: in vivo, mouse; details: daily ip week 8 to 12
Protocol: Drug treatment studies: In twelve-week old male wild type C57BL/6 mice that received DMM surgeries, vehicle (PBS), paroxetine (5 mg/kg/day), fluoxetine (5 mg/kg/day), gallein (10 mg/kg/day) or indomethacin (2.5 mg/kg/day) were administered daily by ip injection. Drug treatment was initiated 8 weeks following DMM to determine the role of GRK2 signaling in the progression of OA. Prior to histologic processing, harvested knee joints were evaluated via micro-CT using a Scanco vivaCT40 scanner with a 55 kVp source as we have previously described. Joints were scanned at a resolution of 10.5 μm. General 3-dimensional images were obtained with simple segmentation at a Scanco threshold of 260, which was determined on inspection of the first specimen. This translates to a linear attenuation coefficient of 2.080 cm-1. Knee analysis starts by locating the highest section of the tibial plateau and defining that as the center point. All bone is captured 100 slices in each direction from the center point. The patella and fibula, if present in that region, are excluded. The fabellae are considered part of the knee and are included. A threshold of 260 (2.080 cm′) is used to analyze bone volume and microarchitecture. Tibia subchondral analysis begins by starting at the knee and proceeding distally until the cortical shell is penetrated. All non-cortical bone is included, both solid and trabecular. Osteophytes were identified as protrusions and counted using cross-sectional images of the 3-dimensional stacks. Subchondral plate thickness was calculated by determining the number of cross-sections forming the subchondral plate and multiplying it by section thickness (C. Huesa, Annals of the rheumatic diseases, 75, 1989-1997 (2016)).

SMILES	cartilage degeneration (Safranin-O and Fast Green histology) (DMM mice [1])	chondro-protective and matrix-regenerative effects (overall) (DMM mice [1])	total number of chondrocytes (DMM mice [1])	uncalcified cartilage area (DMM mice [1])	OARSI score (DMM mice [1])	number of matrix producing chondrocytes (DMM mice [1])	higher osteophyte number (DMM mice [2])	higher subchondral bone mineral density (BMD) (DMM mice [2])	higher subchondral bone volume density (BV/TV) (DMM mice [2])	higher subchondral plate thickness (DMM mice [2])	higher subchondral trabecular thickness (Tb.Th) (DMM mice [2])	increased knee bone volume (BV) (DMM mice [2])	increased knee total volume (TV) (DMM mice [2])
O=C1OC2(c3ccccc31)c1ccc(O)c(O)c1Oc1c2ccc(O)c1O [gallein]	reduced	exert both a chondro-protective and a matrix-regenerative effects; also recorded: equivalent to that of paroxetine	preserved	preserved	lower	higher number	alleviated	alleviated	alleviated	alleviated	alleviated	ameliorated	ameliorated
Fc1ccc([C@@H]2CCNC[C@H]2COc2ccc3c(c2)OCO3)cc1 [paroxetine]	reduced	exert both a chondro-protective and a matrix-regenerative effects	preserved	preserved	lower	higher number	alleviated	alleviated	alleviated	alleviated	alleviated	ameliorated	ameliorated
